Results reported in PubChem BioAssay (NCI).
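Dose response: 5 concentrations. Exposure: 48 h. Format: 96-well plates. Endpoint: linear interpolation; highest concentration if not reached. TGI: total growth inhibition.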

Experiments:
Experiment in all cases: NCI tumour cell line growth inhibition, 48 h
[1] = tested on: SF-539 CNS
[2] = tested on: SNB-75 CNS
[3] = tested on: HOP-92 NSCLC
[4] = tested on: RXF-631 renal
[5] = tested on: UACC-62 melanoma
[6] = tested on: RXF 393 renal
[7] = tested on: DMS 114 small cell lung
[8] = tested on: SK-MEL-28 melanoma
[9] = tested on: K-562 leukemia
[10] = tested on: NCI-H460 lung
[11] = tested on: OVCAR-4 ovarian
[12] = tested on: KM20L2 colon
[13] = tested on: SN12C renal
[14] = tested on: U251 CNS
[15] = tested on: HOP-18 NSCLC
[16] = tested on: HL-60(TB) leukemia
[17] = tested on: SK-OV-3 ovarian
[18] = tested on: HCT-15 colon
[19] = tested on: SNB-19 CNS
[20] = tested on: IGROV1 ovarian
[21] = tested on: COLO 205 colon
[22] = tested on: SNB-78 CNS
[23] = tested on: ACHN renal
[24] = tested on: MOLT-4 leukemia
[25] = tested on: RPMI-8226 leukemia
[26] = tested on: DMS 273 small cell lung
[27] = tested on: XF 498 CNS
[28] = tested on: LXFL 529 NSCLC
[29] = tested on: CCRF-CEM leukemia
[30] = tested on: LOX IMVI melanoma
[31] = tested on: NCI-H23 lung
[32] = tested on: M14 melanoma
[33] = tested on: A498 renal
[34] = tested on: M19-MEL melanoma
[35] = tested on: HCT-116 colon
[36] = tested on: OVCAR-8 ovarian
[37] = tested on: OVCAR-3 ovarian
[38] = tested on: SW-620 colon
[39] = tested on: HT29 colon
[40] = tested on: DLD-1 colon
[41] = tested on: HCC-2998 colon
[42] = tested on: CAKI-1 renal
[43] = tested on: NCI-H522 lung
[44] = tested on: SK-MEL-2 melanoma
[45] = tested on: KM12 colon
[46] = tested on: UO-31 renal
[47] = tested on: HOP-62 NSCLC
[48] = tested on: SK-MEL-5 melanoma
[49] = tested on: OVCAR-5 ovarian
[50] = tested on: SF-295 CNS
[51] = tested on: TK-10 renal
[52] = tested on: A549 NSCLC
[53] = tested on: SF-268 CNS
[54] = tested on: EKVX NSCLC
[55] = tested on: NCI-H226 lung
[56] = tested on: UACC-257 melanoma
[57] = tested on: MALME-3M melanoma
[58] = tested on: 786-0 renal

Measured: TGI

C/C(Cc1ccccc1)=N\NC(N)=S
> 100 µM: [1] | [2] | [3] | [4] | [5] | [6] | [7] | [8] | [9] | [10] | [11] | [12] | [13] | [14] | [15] | [16] | [17] | [18] | [19] | [20] | [21] | [22] | [23] | [24] | [25] | [26] | [27] | [28] | [29] | [30] | [31] | [32] | [33] | [34]

CCCc1nc(NC#N)nc(C(=O)Nc2ccccc2)c1CC
> 100 µM: [35] | [36] | [1] | [2] | [3] | [37] | [38] | [39] | [4] | [5] | [40] | [6] | [7] | [8] | [41] | [9] | [10] | [42] | [12] | [13] | [14] | [43] | [15] | [16] | [44] | [45] | [46] | [47] | [18] | [19] | [48] | [20] | [49] | [22] | [23] | [50] | [24] | [25] | [26] | [27] | [28] | [51] | [52] | [30] | [31] | [53] | [54] | [55] | [56] | [57] | [32] | [33] | [58] | [34]
